In the supplement of paper PMC11061612:

Legend:
Assay in all cases: Bliss excess, mean over the matrix (fraction); higher = more synergy
[1] = test system: CFPAC-1 (Pancreatic Carcinoma)
Summary of the method: (§1)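 After 24 hours at 37°C and 5% CO2 in 1536-well plates, cells in DMEM/F12 or RPMI plus 10% FBS received two-drug dose matrices for 72 hours. Viability came from CellTiter-Glo 2.0 luminescence and was scaled as inhibition, anchored at 0 by vehicle wells and at 1 by blank wells. Combination Emax is taken as the second-highest inhibition in the matrix, and Bliss excess as the observed combination effect less EA + EB − EA·EB, with EA and EB the single-agent effects.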

[2] = test system: COR-L23 (Non-Small Cell Lung Carcinoma)
Summary of the method: as §1

[3] = test system: COR-L95 (Small Cell Lung Carcinoma)
Summary of the method: as §1

[4] = test system: DMS-273 (Small Cell Lung Carcinoma)
Summary of the method: as §1

[5] = test system: G-292-Clone-A141B1 (Osteosarcoma)
Summary of the method: as §1

[6] = test system: HT-29 (Colorectal Carcinoma)
Summary of the method: as §1

J82 (Bladder Carcinoma) = test system: J82 (Bladder Carcinoma)
Summary of the method: as §1

[7] = test system: KARPAS-1106P (B-Cell Non-Hodgkin's Lymphoma)
Summary of the method: as §1

[8] = test system: KM-H2 (Hodgkin's Lymphoma)
Summary of the method: as §1

[9] = test system: MDA-MB-231 (Breast Carcinoma)
Summary of the method: as §1

[10] = test system: MFH-ino (Other Solid Carcinomas)
Summary of the method: as §1

[11] = test system: NCI-H1694 (Small Cell Lung Carcinoma)
Summary of the method: as §1

NCI-H2369 (Mesothelioma) = test system: NCI-H2369 (Mesothelioma)
Summary of the method: as §1

NCI-H2595 (Mesothelioma) = test system: NCI-H2595 (Mesothelioma)
Summary of the method: as §1

RH-1 (Ewing's Sarcoma) = test system: RH-1 (Ewing's Sarcoma)
Summary of the method: as §1

[12] = test system: SW1088 (Low Grade Glioma)
Summary of the method: as §1

[13] = test system: SW1990 (Pancreatic Carcinoma)
Summary of the method: as §1

[14] = test system: SW756 (Cervical Carcinoma)
Summary of the method: as §1

[15] = test system: SW780 (Bladder Carcinoma)
Summary of the method: as §1

[16] = test system: TE-5 (Esophageal Squamous Cell Carcinoma)
Summary of the method: as §1

SMILES	Bliss excess [1]	Bliss excess [2]	Bliss excess [3]	Bliss excess [4]	Bliss excess [5]	Bliss excess [6]	Bliss excess (J82 (Bladder Carcinoma))	Bliss excess [7]	Bliss excess [8]	Bliss excess [9]	Bliss excess [10]	Bliss excess [11]	Bliss excess (NCI-H2369 (Mesothelioma))	Bliss excess (NCI-H2595 (Mesothelioma))	Bliss excess (RH-1 (Ewing's Sarcoma))	Bliss excess [12]	Bliss excess [13]	Bliss excess [14]	Bliss excess [15]	Bliss excess [16]
CN(CCO)CC[C@H](CSc1ccccc1)Nc1ccc(S(=O)(=O)NC(=O)c2ccc(N3CCC([C@@H](O)c4ccccc4-c4ccc(Cl)cc4)CC3)cc2)cc1S(=O)(=O)C(F)(F)F [AZD4320] + C[C@@H]1COCCN1C2=NC(=NC(=C2)C3(CC3)[S@](=N)(=O)C)C4=C5C=CNC5=NC=C4 [AZD6738] (first compound max 1 µM, 7x7, partner max 10 µM)	-0.0077	-0.0468	-0.0234	-0.025	-0.0265	-0.0073	-0.0144	-0.0301	0.0381	-0.0571	-0.0785	0.0238	0.0246	-0.0222	0.0321	-0.0732	0.0112	-0.0658	-0.0478	0.0256
CN(CCO)CC[C@H](CSc1ccccc1)Nc1ccc(S(=O)(=O)NC(=O)c2ccc(N3CCC([C@@H](O)c4ccccc4-c4ccc(Cl)cc4)CC3)cc2)cc1S(=O)(=O)C(F)(F)F [AZD4320] + C=CCn1c(=O)c2cnc(Nc3ccc(N4CCN(C)CC4)cc3)nc2n1-c1cccc(C(C)(C)O)n1 [AZD1775] (first compound max 1 µM, partner max 1 µM)	-0.0373	-0.006	0.0519	-0.0229	0.0335	0.0055	-0.107	0.028	-0.006	0.0551	-0.0288	0.0834	-0.0413	-0.0113	0.0413	0.0064	0.0307	-0.0225	0.0079	0.0773
Cc1c2c(nn1C)CSCc1cc(n(C)n1)CSc1cc(c3ccccc3c1)OCCCc1c(C(=O)O)n(C)c3c-2c(Cl)ccc13 [AZD5991] + C[C@@H]1COCCN1C2=NC(=NC(=C2)C3(CC3)[S@](=N)(=O)C)C4=C5C=CNC5=NC=C4 [AZD6738] (first compound max 1 µM, 7x7, partner max 10 µM)	0.0442	-0.0121	0.0482	0.0196	-0.001	0.0165	0.0009	0.0182	0.0236	0.0132	0.0319	0.0064	0.0442	-0.0124	-0.0221	-0.0048	-0.0062	0.02	0.0324	-0.0294
NC1(C(=O)N[C@@H](CCO)c2ccc(Cl)cc2)CCN(c2ncnc3[nH]ccc23)CC1 [Capivasertib] + COc1nnc2ccc(N3CCC(c4ccc(OCCN5CCN(C)C(=O)[C@H]5C)cc4)CC3)nn12 [AZD5153] (first compound max 10 µM, 7x7, partner max 1 µM)	0.0332	0.0335	-0.0272	0.0231	0.0249	-0.0029	0.0421	0.0728	0.0144	-0.009	0.0006	0.0007	0.004	-0.0072	0.0517	0.0253	-0.0086	0.0197	0.0042	0.0361
Cc1nc(Nc2ncc(C(=O)Nc3c(C)cccc3Cl)s2)cc(N2CCN(CCO)CC2)n1 [Dasatinib] + CC(=O)Nc1cccc(-n2c(=O)n(C3CC3)c(=O)c3c(Nc4ccc(I)cc4F)n(C)c(=O)c(C)c32)c1 [Trametinib] (first compound max 2 µM, 7x7, partner max 1 µM)	0.106	0.0284	-0.0318	-0.0922	–	0.0984	-0.0068	0.122	-0.0367	-0.0145	-0.0838	-0.0311	-0.0535	-0.0413	-0.0353	-0.0087	0.0235	-0.0659	0.0848	-0.0099
CCc1c2c(nc3ccc(O)cc13)-c1cc3c(c(=O)n1C2)COC(=O)[C@]3(O)CC [SN-38] + O=C(c1cc(Cc2n[nH]c(=O)c3ccccc23)ccc1F)N1CCN(C(=O)C2CC2)CC1 [Olaparib] (first compound max 0.3 µM, 7x7, partner max 10 µM)	0.0607	0.0328	0.0044	0.0129	-0.0332	0.0396	0.0532	-0.0008	–	0.107	0.0254	–	0.0128	0.0184	0.102	0.0683	0.0001	-0.0109	–	0.0521
COc1nnc2ccc(N3CCC(c4ccc(OCCN5CCN(C)C(=O)[C@H]5C)cc4)CC3)nn12 [AZD5153] + CN(CC[C@H](CSC1=CC=CC=C1)NC2=C(C=C(C=C2)S(=O)(=O)NC(=O)C3=CC=C(C=C3)N4CCC(CC4)[C@H](C5=CC=CC=C5C6=CC=C(C=C6)Cl)O)S(=O)(=O)C(F)(F)F)CCO [AZD4320] (first compound max 1 µM, 7x7, partner max 1 µM)	-0.0328	-0.0014	–	0.0043	–	-0.0111	0.0292	–	-0.0319	–	–	0.0607	-0.0032	–	-0.0001	–	–	0.0196	-0.0091	–
CN(C)CCCOc1ccc(-c2ccc3ncc4c(c3c2)n(C2CCOCC2)c(=O)n4C)cn1 [AZD0156] + O=C(c1cc(Cc2n[nH]c(=O)c3ccccc23)ccc1F)N1CCN(C(=O)C2CC2)CC1 [Olaparib] (first compound max 3 µM, partner max 3 µM)	-0.0026	-0.0155	-0.11	0.155	-0.0003	0.015	-0.0375	0.0471	0.0575	0.0221	-0.061	–	-0.0455	-0.0288	0.265	0.022	-0.0285	-0.0192	-0.0007	-0.0241
Cc1c2c(nn1C)CSCc1cc(n(C)n1)CSc1cc(c3ccccc3c1)OCCCc1c(C(=O)O)n(C)c3c-2c(Cl)ccc13 [AZD5991] + C[C@@H](Nc1cc(F)cc(F)c1)c1cc(C(=O)N(C)C)cc2c(=O)cc(N3CCOCC3)oc12 [AZD8186] (first compound max 1 µM, 7x7, partner max 3 µM)	-0.0077	-0.032	-0.0012	-0.0094	-0.013	-0.012	0.0359	0.0154	-0.0338	-0.015	-0.0452	0.0151	-0.004	0.0369	–	0.0098	-0.0948	0.0162	0.0157	-0.0172
C=CCn1c(=O)c2cnc(Nc3ccc(N4CCN(C)CC4)cc3)nc2n1-c1cccc(C(C)(C)O)n1 [AZD1775] + C1CN(CCC1(C(=O)N[C@@H](CCO)C2=CC=C(C=C2)Cl)N)C3=NC=NC4=C3C=CN4 [Capivasertib] (first compound max 3 µM, partner max 3 µM)	0.0135	0.0185	0.0297	-0.0053	-0.0313	-0.0357	-0.0184	0.0135	0.0333	-0.0181	-0.0204	–	0.0035	-0.0787	-0.0509	-0.0707	-0.0209	-0.0075	0.0017	0.0129
COc1cc2ncnc(Nc3ccc(F)c(Cl)c3)c2cc1OCCCN1CCOCC1 [Gefitinib] + CC(C)n1c(=O)n(C)c2cnc3cc(F)c(-c4ccc(OCCCN5CCCCC5)nc4)cc3c21 [AZD1390] (first compound max 10 µM, 7x7, partner max 0.3 µM)	-0.0676	-0.069	-0.0119	-0.0068	-0.0548	-0.0512	-0.12	-0.0393	-0.0312	-0.0659	-0.0761	–	-0.0614	-0.0596	-0.0399	-0.0688	-0.0441	-0.0551	-0.0642	-0.045
CC(=O)c1c(C)c2cnc(Nc3ccc(N4CCNCC4)cn3)nc2n(C2CCCC2)c1=O [Palbociclib] + CN(CC[C@H](CSC1=CC=CC=C1)NC2=C(C=C(C=C2)S(=O)(=O)NC(=O)C3=CC=C(C=C3)N4CCC(CC4)[C@H](C5=CC=CC=C5C6=CC=C(C=C6)Cl)O)S(=O)(=O)C(F)(F)F)CCO [AZD4320] (first compound max 10 µM, 7x7, partner max 1 µM)	0.0056	-0.0608	–	-0.106	–	-0.0271	-0.0667	–	-0.0282	–	–	0.0632	-0.0408	–	-0.0674	–	–	-0.0883	-0.136	–
C[C@@H](c1ccc2nccn2c1)n1nnc2ncc(-c3cnn(C)c3)nc21 [Savolitinib] + CN(CC[C@H](CSC1=CC=CC=C1)NC2=C(C=C(C=C2)S(=O)(=O)NC(=O)C3=CC=C(C=C3)N4CCC(CC4)[C@H](C5=CC=CC=C5C6=CC=C(C=C6)Cl)O)S(=O)(=O)C(F)(F)F)CCO [AZD4320] (first compound max 1 µM, 7x7, partner max 1 µM)	-0.0545	-0.0349	–	-0.0126	–	-0.0245	0.0168	–	-0.0267	–	–	-0.042	-0.0522	–	0.0096	–	–	-0.0319	-0.0468	–
